Laboratory results reported in patent US11523610B2, “Regulating plant growth using a diapocarotenoid” (King Abdullah University of Science and Technology, priority 2018, dated 2022).

Assays:
[1] = test system: pDR5rev::GFP seedlings; experiment: Confocal microscopy of pDR5rev::GFP auxin marker line; type: in vivo, Arabidopsis
Description: To examine pDR5Rev::GFP fluorescence at the collet region, live seedlings were directly used for laser scanning confocal microscopy (Zeiss LSM 510 microscope) examination.
For fluorescence intensity quantification of pDR5Rev::GFP and pPIN3::PIN3-GFP marker lines, ImageJ software (rsbweb.nih.gov/ij/) was used after taking confocal microscopy photos. All calculations are background subtracted.

[2] = test system: Arabidopsis seedlings (root gravitropism); experiment: Root gravitropism of NPA treated seedlings; type: in vivo; settings: 5 DAG seedlings, 1 μM NPA plus 20 μM anchorene
Procedure: To determine if the effect of anchorene on ANR development is caused by changes in auxin distribution, the activity of anchorene in the presence of NPA was evaluated. […] Vertical grown 5 DAG seedlings on half MSO with indicated treatments were analyzed. The orientation of root growth was measured and then was assigned to one of twelve 30° sectors. […] The auxin efflux carrier PIN3 plays an important role in LR initiation and emergence. Therefore, the effect of anchorene on PIN3 using the pPIN3::PIN3-GFP marker line was examined.

[3] = test system: dark grown Arabidopsis seedlings; experiment: Adventitious root assay; type: in vivo; settings: 5, 10, or 20 μM anchorene, 5 days
Description: ANRs were counted in seedlings vertically grown on half strength MS (with 0.5% sucrose +1% agar, 0.5 g/L MES, pH 5.7) media 8 days post-stratification (dps) using a dissection microscope. To investigate ANR formation after root apical meristems (RAM) excision (ANR-RE), RAM of seedlings were excised using sterile scalpels at 5 dps and then grown for another 3 days prior to counting the number of emerged ANRs. RAM of seedlings were excised at 8 dps and then grown for another 3 days prior to counting the number of emerged LRs. For determining the effect of anchorene on lateral roots, the number of emerged lateral roots were counted using a dissection microscope at 8 dps. For primary root length measurements, seedlings were measured using the publicly available ImageJ software (downloaded from rsbweb.nih.gov/ij/) after taking digital photographs. For adventitious root assay, the number of emerged adventitious roots per plant were counted after 5 days of treatment on plates with or without anchorene.
4-day-old dark grown Arabidopsis seedlings were transferred to plates with 5, 10, or 20 μM anchorene, or without. After 5 additional days of growth, the number of adventitious roots was determined for each seedling.

C\C(C=O)=C/C=C/C=C(\C)C=O [anchorene, 12,12′-diapocarotene-12,12′-dial]
GFP signal in ANR primordia, combined NF/anchorene treatment ([1]; 1 μM NF plus 20 μM anchorene): clearly enhanced
GFP signal at the collet / ANR primordia ([1]; single compound, 20 μM anchorene, 1 μM NF): strong GFP signal
gravitropism in NPA treated seedlings [2]: largely restored
number of adventitious roots [3]: significantly increases
